Experimental data reported in patent US11344512B2, “Titration of tapentadol” (Grünenthal GmbH, priority 2007, dated 2022).

Legend:
adverse effects = details: cited from earlier work
[1] = test system: patients with chronic low back pain or chronic pain from osteoarthritis of the knee or hip; assay: Example E-3: opioid withdrawal after 90 days treatment (COWS and SOWS questionnaires), phase III trial; type: in vivo, human (patients); details: for patients reporting mild-to-moderate withdrawal symptoms (COWS assessment): 2 to 4 days after study medication ceased, after 90 days treatment
Protocol: The symptoms of opioid withdrawal following long-term treatment (90 days) with tapentadol immediate release (IR) compared with oxycodone IR were evaluated in a randomized, double-blind, active-control, parallel group, flexible dose, multicenter phase III trial of patients with chronic low back pain of chronic pain from osteoarthritis of the knee or hip. Patients (N=849) were randomly assigned in a 4:1 ratio to a flexible dose of tapentadol IR (50 or 100 mg/dose; maximum 600 mg/day) or oxycodone IR (10 or 15 mg/dose; maximum 90 mg/day) every 4 to 6 hours. Symptoms of withdrawal following opioid discontinuation were examined using the Clinical Opioid Withdrawal Score (COWS) and the Subjective Opioid Withdrawal Score (SOWS) questionnaires. […] The mean total SOWS score, 2 to 4 days after last study drug intake, was lower for the tapentadol IR group (6.9) than the oxycodone IR group (8.7). […] In addition, 5 or more days after last study drug intake, the mean total SOWS score was 6.3 for the tapentadol IR group and 7.0 for the oxycodone IR group (no significant difference).

[2] = test system: patients with osteoarthritis of hip/knee or chronic low back pain; assay: Clinical studies C-1/C-2 (without titration) and E-1/E-2 (forced titration): occurrence of somnolence; type: in vivo, human (patients)
Protocol: A randomized, double-blind, multiple dose, parallel-group study assessing the efficacy and safety of 3 dosages of tapentadol prolonged release (bid) (25 mg, 50 mg and 100 mg) compared to oxycodone prolonged release (bid) 20 mg and placebo over 28 days in patients with hip and/or knee-joint osteoarthritis. Subjects: 40-75 years old, male and female patients. 375 patients, randomized to placebo, standard opioid, tapentadol. Treatment Regimen: Day 1 only evening dose Day 2—Day 28 bid Day 29 only morning dose.
A randomized, double-blind, multiple dose, parallel-group study assessing the efficacy and safety of tapentadol prolonged release 25, 50 and 100 mg compared to placebo and tramadol prolonged release 100 mg in patients with chronic low back pain.
Male and female patients 18-75 years old with a history of low back pain of at least 6 months, requiring regular treatment on at least 60 out of last 90 days.
430 patients, randomized to placebo, tramadol 100 mg prolonged release, 3 dosages tapentadol.
A randomized, double-blind, parallel-group study assessing the efficacy and safety of two titration regimen of tapentadol prolonged release (25 mg, 50 mg, 100 mg and 100 mg, 150 mg, 200 mg of free base of tapentadol) given orally twice daily (bid) compared to placebo and oxycodone controlled release (10 mg, 10 mg, 20 mg) in patients with chronic pain due to osteoarthritis of the knee. Subjects: Male and female patients≥40 years old with a diagnosis of osteoarthritis of the knee Treatment Regimen: Patients started with the lowest dose of the titration phase for the first 3 days and up-titrated to the intermediate dose on day 4. Subjects were maintained at the intermediate dose for the next 11 days. After these 11 days patients started the maintenance phase and received the highest dose of each regimen for the remaining 14 days. Subjects who were unable to tolerate the highest dose after having received that dose for at least 3 days were allowed to down titrate to the intermediate dose. Down titration was permitted only once during the fixed-dose maintenance phase.
A randomized, double-blind, parallel-group study that compares the efficacy and safety of two titration regimens of tapentadol prolonged release (25 mg-50 mg-100 mg and 100 mg-150 mg-200 mg) given orally twice daily (bid) and tramadol prolonged release (100 mg-150 mg-200 mg) p.o. bid to placebo in patients with moderate to severe chronic pain due to chronic low back pain. Subjects: Male and female patients≥18 years old with a diagnosis of low back pain of at least 3 months. Treatment Regimen:
Patients took the first dose and continued on the lowest dose in their treatment regimen for 3 days (i.e. 6 doses). After the sixth dose, patients titrated to the intermediate dose in their treatment regimen and continued on this intermediate dose for 11 days (i.e. 22 doses). Up-titration was mandatory. Patients who were unable to tolerate study medication were removed from the study. After the twenty second dose, patients titrated to the final dose in their treatment regimen and continued on this final dose for 14 days.
Concentration measurements were taken from comparative examples C-1 and C-2, both without dose titration. Examples E-1 and E-2 in the same indications were used to get PK/PD information under dose titration. In all studies adverse events were noted.

pain = assay: Preliminary clinical trials: pain treating effect (VAS) versus serum concentration of tapentadol; type: in vivo, human (individuals)
Protocol: In one preferred embodiment dose a is below the pharmaceutically effective pain treating dose of tapentadol. The pharmaceutically effective pain treating dose of tapentadol may vary individually and can be determined by routine experimentation for a given subject. Usually, the minimum pharmaceutically effective pain treating dose will be above 50 mg twice daily (bid). Preferably, effective pain treatment is to be regarded as at least 5% decrease in pain in an individual, more preferably at least 10%, still more preferably at least 15% and most preferably at least 20% decrease in pain in an individual, taking into account that low serum concentrations of tapentadol suffice to show an effect in individuals that are relatively sensitive and higher serum concentrations of tapentadol are needed to show an effect in persons that are relatively unsensitive.

[3] = 2 to 4 days after last study drug intake
[4] = 5 or more days after last study drug intake

SMILES: COc1cccc(C2(O)CCCCC2CN(C)C)c1 (stereo not drawn) [tramadol]
- frequency of dizziness, nausea and vomiting with slow titration (adverse effects): reduce the frequency
- frequency of somnolence with slow titration (adverse effects): not significantly reduced

SMILES: CC[C@@H](c1cccc(O)c1)[C@@H](C)CN(C)C [tapentadol IR]
- mean total SOWS score [1, 3]: 6.9
- patients reporting mild-to-moderate withdrawal symptoms (COWS assessment) [1]: 17%
- mean total SOWS score [1, 4]: 6.3

SMILES: CC[C@@H](c1cccc(O)c1)[C@@H](C)CN(C)C [tapentadol, (−)-(1R,2R)-3-(3-dimethylamino-1-ethyl-2-methyl-propyl)-phenol]
- concentration at which adverse events (somnolence) occurred, without titration (C-1, C-2) compared to dose titration (E-1, E-2) ([2]; FIG. 5 and 6, prolonged release): much lower concentration
- somnolence occurred in % of patients ([2]; studies using forced titration, total daily dose 200 mg, pooled data): 6%
- somnolence occurred in % of patients ([2]; studies using forced titration, total daily dose 400 mg, pooled data): 12%
- somnolence occurred in % of patients ([2]; studies without titration, total daily dose 172 mg, pooled data from both studies): 4.3%
- visual analog scale (VAS) in a population mean (pain; at serum concentration about 5 ng/ml): approximately −2 mm
- visual analog scale (VAS) in a population mean (pain; at serum concentration about 300 ng/ml): approximately −15 mm

SMILES: COc1ccc2c3c1O[C@H]1C(=O)CC[C@@]4(O)[C@@H](C2)N(C)CC[C@]314 [oxycodone IR, reference compound]
- mean total SOWS score [1, 3]: 8.7
- patients reporting mild-to-moderate withdrawal symptoms (COWS assessment) [1]: 29%
- mean total SOWS score [1, 4]: 7.0

SMILES: COc1ccc2c3c1O[C@H]1C(=O)CC[C@@]4(O)[C@@H](C2)N(C)CC[C@]314 [oxycodone, reference compound]
- effect of titration regimen of example E-1 on suppression of somnolence ([2]; FIG. 8, oxycodone controlled release): no comparable effect on the suppression of somnolence
